Laboratory results taken from patent US20070254038A1, “Microspheroidal Controlled Release Of Biomolecules” (The Trustees of the University of Pennsylvania, priority 2006, published 2007).
“Also recorded” adds a separate entry of the source.

Test: Incorporation of vancomycin into acid-catalyzed (AC) and acid-base catalyzed (ABC) sols: clear vs cloudy (precipitation)
Format: physicochemical
Procedure: TEOS (10 ml) and 0.1 M HCl (2.4 ml), with or without the addition of deionized water, were mixed using a magnetic stirrer until a one-phase sol was formed. The water/TEOS molar ratio varied from 0 to 10. Pharmaceutical agents were then added to the sol. For example, Sols with 20 mg/g and 30 mg/g of vancomycin (drug to SiO2 ratio), and sols with 50 mg/g and 80 mg/g of bupivacaine per gram SiO2 were made by adding corresponding amounts of the drug. The sol containing added pharmaceutical agents was mixed for 30 minutes at 660 rpm and was then allowed to stand for 15 minutes. Subsequently, 0.08 M NH4OH (2.2-2.4 ml) was added dropwise to the sol, which was stirred at 660 rpm targeting a final pH of about 5.5. Under these conditions, the time to gelation varied from about 20 and 40 minutes. Upon mixing, the sol was added dropwise into vegetable oil stirred at speeds between 220 and 440 rpm and microspheres precipitated to the bottom of the beaker. Microspheres were filtered through a 70 μm nylon microporous filter and then rinsed with DI water and alcohol. The microspheres were left to dry overnight in a laminar flow hood.
Vancomycin (vancomycin-HCl; Abbott Labs, Chicago, Ill.) dissolved in water at 100 mg/ml was used for incorporation into the sols. Bupivacaine (Spectrum, New Brunswick, N.J.) dissolved in methanol at 70 mg/ml was also used for incorporation into the sols.
The effect of water content on the incorporation of vancomycin into the sol was studied by using either “water-free” (no additional water added other than that contained in the aqueous HCl solution) acid-catalyzed sols or sols with added water/TEOS molar ratios (R) of 5, 6, 8, and 10. […] When water was added at R=4, low doses of vancomycin such as 16.7 mg/g SiO2 could be added to the acid-catalyzed sol.

Compound: CN[C@H](CC(C)C)C(=O)N[C@H]1C(=O)N[C@@H](CC(N)=O)C(=O)N[C@H]2C(=O)N[C@H]3C(=O)N[C@H](C(=O)N[C@H](C(=O)O)c4cc(O)cc(O)c4-c4cc3ccc4O)[C@H](O)c3ccc(c(Cl)c3)Oc3cc2cc(c3O[C@@H]2O[C@H](CO)[C@@H](O)[C@H](O)[C@H]2O[C@H]2C[C@](C)(N)[C@H](O)[C@H](C)O2)Oc2ccc(cc2Cl)[C@H]1O [Vancomycin, vancomycin]
- appearance of sol on incorporation of vancomycin (water-free AC sol, vancomycin loading 16.7 mg/g): cloudy
- appearance of sol on incorporation of vancomycin (water/TEOS R=4, ABC sol (after base), loading 16.7 mg/g): precipitation of vancomycin was seen; also recorded: cloudy
- appearance of sol on incorporation of vancomycin (water/TEOS R=4, AC sol, loading 16.7 mg/g): clear
- appearance of sol on incorporation of vancomycin (water/TEOS R=5, ABC sol (after base), loading 28 mg/g): vancomycin precipitation was observed; also recorded: cloudy
- appearance of sol on incorporation of vancomycin (water/TEOS R=5, ABC sol, loading 16.7 mg/g): clear
- appearance of sol on incorporation of vancomycin (water/TEOS R=5, ABC sol, loading 22.2 mg/g): clear
- appearance of sol on incorporation of vancomycin (water/TEOS R=5, AC sol, loading 16.7 mg/g): clear
- appearance of sol on incorporation of vancomycin (water/TEOS R=5, AC sol, loading 22.2 mg/g): clear
- appearance of sol on incorporation of vancomycin (water/TEOS R=5, AC sol, loading 28 mg/g): clear
- precipitation after the addition of the drug and base (water/TEOS R=5, doses up to 20 mg/g SiO2): no precipitation was observed
- appearance of sol on incorporation of vancomycin (water/TEOS R=8, ABC sol, loading 22.2 mg/g): clear
- appearance of sol on incorporation of vancomycin (water/TEOS R=8, ABC sol, loading 33 mg/g): clear
- appearance of sol on incorporation of vancomycin (water/TEOS R=8, AC sol, loading 22.2 mg/g): clear
- appearance of sol on incorporation of vancomycin (water/TEOS R=8, AC sol, loading 33 mg/g): clear
- appearance of sol on incorporation of vancomycin (water/TEOS R=10, ABC sol, loading 22.2 mg/g): clear
- appearance of sol on incorporation of vancomycin (water/TEOS R=10, AC sol, loading 22.2 mg/g): clear
- incorporation of higher loads into the sol (water/TEOS ratios 8 and above, load such as 28 mg/g SiO2): successfully incorporated
